Experimental data reported in patent US5773236A, “Assay for glutathiane transferase using polyhaloaryl-substituted reporter molecules” (Molecule Probes, Inc., priority 1997, dated 1998).
Where a name gives a salt, the structure may show the parent alone.

What follows are compounds tested on Bovine pulmonary aorta endothelial cells (BPAEC) (assay: Glutathione adduct formation and fate of substrate in cultured animal cells, HPLC (Example 66)). Settings: BPAEC, up to 4 hours.
Type: cell-based
Method: The solutions are mixed overnight with three volumes of ethyl acetate followed by centrifugation at 15,000×g for 30 min to separate the organic and aqueous layers. HPLC analysis using a Rainin HPLC equipped with a C18, 5 μm, 100 Å, 4.6×250 mm MICROSORB-MV reverse phase column. […] Products are detected by reading the absorbance at 500 nm.
Bovine pulmonary aorta endothelial cells (BPAEC) are removed from flasks by trypsinization and washed into fresh complete growth medium to yield 10^6 cells/mL. […] Other aliquots of the cell suspension are loaded with the same substrates for 1 hour, rinsed into fresh complete medium, then incubated in the absence of substrate for an additional 3 hr at 37° C. to look for retention and efflux of fluorescent products. At the end of each incubation period the cells are removed by centrifugation and the supernate is retained. The cell pellets are resuspended in 1 mL of E-Pure water and subjected to three freeze-thaw cycles (-80° C. to 37° C.).
`N[C@@H](CCC(=O)N[C@@H](CSc1c(F)c(F)c(C(=O)Nc2ccc3c(c2)C(=O)OC32c3ccc(O)cc3Oc3cc(O)ccc32)c(F)c1F)C(=O)NCC(=O)O)C(=O)O` [Compound 45, 5-(4'-(S-glutathionyl))-(2',3', 5',6'-tetrafluorobenzoylamino)fluorescein] was tested, and the “retention of GSH adduct / fluorescence labeling in cells” value was “rapidly removed from the cytoplasm of these BPAEC cells but a fraction of the fluorescence labeling is retained, even after 4 hours”.

What follows are compounds tested on glutathione S-transferase (assay: Other derivatives tested as GSH/GST substrates, TLC (Example 54)). Settings: 0.2-0.5 mM compound in 50 mM MOPS, pH 7.5, TLC.
Type: biochemical
Method: The reaction is then stopped by adding 10% H2 O2.
The PHA compound (ethanol stock solution, 2 mM) and reduced glutathione (phosphate buffer stock solution, 5 mM) are incubated under the same conditions as described above without addition of glutathione S-transferase.
Commercial precast silica gel TLC plates are used to follow both the enzymatic reaction and the blank control reaction. […] UV absorbance by the PHA substituent always permits detection of both the compound and any glutathione adduct by fluorescence quenching when the TLC sheet is illuminated with 254-nm radiation. Fluorescent compounds can be directly detected using appropriate UV or visible illumination. […] Furthermore, the intensity of the signal on the TLC sheet often can be enhanced by methods well known in the art, such as by application of a phosphomolybdate spray, iodine vapors or a similar detection reagent. Radioactive products can be directly detected and quantitated by exposure to a suitable film using methods well known in the art.
`O=C(c1c(F)c(F)c(F)c(F)c1F)c1cc2ccc(O)cc2oc1=O` [7-hydroxy-3-(pentafluorobenzoyl)coumarin] was tested, and the glutathione adducts detected was “detectable glutathione adducts”. For `O=C(c1c(F)c(F)c(F)c(F)c1F)N1CCN(C(=O)c2c3oc4cc(O)c(Cl)cc4nc-3ccc2=O)CC1` [Compound 17], the glutathione adducts detected was “detectable glutathione adducts”. With `O=C(c1c(F)c(F)c(F)c(F)c1F)N1CCN(C(=O)c2c3oc4cc(O[C@@H]5O[C@H](CO)[C@H](O)[C@H](O)[C@H]5O)c(Cl)cc4nc-3ccc2=O)CC1` [Compound 22, 8-chloro-3,7-dihydroxy-4-(4-pentafluorobenzoyl-1-piperazinecarbonyl)phenoxazine β-D-galactopyranoside] the glutathione adducts detected was “detectable glutathione adducts”. In the case of `CN(C)c1ccc2c(c1)Oc1cc(N(C)C)ccc1C21OC(=O)c2cc(NC(=O)c3c(F)c(F)c(F)c(F)c3F)ccc21` [Compound 25, 5-(pentafluorobenzoylamino)tetramethylrhodamine], the glutathione adducts detected is reported as “detectable glutathione adducts”. In the case of `O=C(Nc1ccc2c(c1)C(=O)OC21c2ccc(O)cc2Oc2cc(O)ccc21)c1cc(F)c(F)c(F)c1` [Compound 26, 5-(3',4',5'-trifluorobenzoylamino)fluorescein], the glutathione adducts detected is reported as “detectable glutathione adducts”. With `O=C1OC2(c3ccc(O)cc3Oc3cc(O)ccc32)c2ccc(NC(=O)c3c(F)c(F)c(F)c(F)c3C(=O)O)cc21` [Compound 27, 5-(2'-carboxy-3',4',5',6'-tetrafluorobenzoylamino)fluorescein] the glutathione adducts detected was “detectable glutathione adducts”. With `O=C1OC2(c3ccc(O)cc3Oc3cc(O)ccc32)c2ccc(N3C(=O)c4c(F)c(F)c(F)c(F)c4C3=O)cc21` [Compound 28, 5-tetrafluorophthalimidylfluorescein] the glutathione adducts detected was “detectable glutathione adducts”. `CCN(CC)c1ccc2c(CNC(=O)c3c(F)c(F)c(F)c(F)c3F)cc(=O)oc2c1` [Compound 29, 7-diethylamino-4-(((Pentafluorobenzoyl)amino)methyl)coumarin] was tested, and the glutathione adducts detected was “detectable glutathione adducts”. With `Cc1cc(C)n2c1C=C1C=CC(CCC(=O)NCCNC(=O)c3c(F)c(F)c(F)c(F)c3F)=[N+]1[B-]2(F)F` [Compound 30] the glutathione adducts detected was “detectable glutathione adducts”. With `NCCNC(=O)c1c(F)c(F)c(F)c(F)c1F` [Compound 31, ((2-(pentafluorobenzoyl)amino)ethyl)ammonium trifluoroacetate] the glutathione adducts detected was “detectable glutathione adducts”. In the case of `O=C(NCCNC(=O)c1cc2ccc(O)cc2oc1=O)c1c(F)c(F)c(F)c(F)c1F` [Compound 32, 7-hydroxy-3-((((2-(pentafluorobenzoyl)amino)ethyl)amino)carbonyl)coumarin], the glutathione adducts detected is reported as “detectable glutathione adducts”. With `CN(C)c1ccc2c(CC(=O)NCCNC(=O)c3c(F)c(F)c(F)c(F)c3F)cc(=O)oc2c1` [Compound 40, 7-dimethylamino-4-(((((2-(pentafluorobenzoyl)amino)ethyl)amino)carbonyl)methyl)coumarin] the glutathione adducts detected was “detectable glutathione adducts”. `O=c1oc2cc(O)ccc2cc1-c1c(F)c(F)c(F)c(F)c1F` [Compound 41, 7-hydroxy-3-pentafluorophenylcoumarin] was tested, and the glutathione adducts detected was “detectable glutathione adducts”. With `O=C(c1c(F)c(F)c(F)c(F)c1F)c1cc2cc(F)c(O)c(F)c2oc1=O` [Compound 42, 6,8-difluoro-7-hydroxy-3-pentafluorobenzoylcoumarin] the glutathione adducts detected was “detectable glutathione adducts”.
